Experimental data reported in PubChem BioAssay AID330 (DTP/NCI, 2004).
Where “and” joins values, the source holds several entries; their conditions need not be identical. Equal values may be shown once. Toxic doses and inconclusive results are not listed.

System: P388 leukemia ip, CD2F1 mice, survival T/C
Test: NCI In Vivo Anticancer Drug Screen. Data for tumor model P388 Leukemia (intraperitoneal) in CD2F1 (CDF1) mice
Conditions: endpoint: median survival time, higher = longer survival
Method in brief: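 Mice carrying the transplanted tumor received test compound or vehicle. Survival was recorded in each group, and the value is the treated-group measurement divided by that of the vehicle-treated control group.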

[1] = dose: 50.0 mg/kg/injection, schedule: Q01DX009 (ip), vehicle: saline
[2] = dose: 100.0 mg/kg/injection, schedule: Q01DX009 (ip), vehicle: saline
[3] = dose: 200.0 mg/kg/injection, schedule: Q01DX009 (ip), vehicle: saline
[4] = dose: 100.0 mg/kg/injection, schedule: Q01DX009 (ip), vehicle: saline with Tween-80
[5] = dose: 200.0 mg/kg/injection, schedule: Q01DX009 (ip), vehicle: saline with Tween-80
[6] = dose: 50.0 mg/kg/injection, schedule: Q01DX005 (ip), vehicle: saline with Tween-80
[7] = dose: 100.0 mg/kg/injection, schedule: Q01DX005 (ip), vehicle: saline with Tween-80
[8] = dose: 60.0 mg/kg/injection, schedule: Q01DX005 (ip), vehicle: Klucel (hydroxypropylcellulose) (HPC)
[9] = dose: 120.0 mg/kg/injection, schedule: Q01DX005 (ip), vehicle: Klucel (hydroxypropylcellulose) (HPC)
[10] = dose: 240.0 mg/kg/injection, schedule: Q01DX005 (ip), vehicle: Klucel (hydroxypropylcellulose) (HPC)
[11] = dose: 200.0 mg/kg/injection, schedule: Q04DX003 (ip), vehicle: saline with Tween-80
[12] = dose: 50.0 mg/kg/injection, schedule: Q01DX009 (ip), vehicle: Klucel (hydroxypropylcellulose) (HPC)
[13] = dose: 100.0 mg/kg/injection, schedule: Q01DX009 (ip), vehicle: Klucel (hydroxypropylcellulose) (HPC)
[14] = dose: 12.5 mg/kg/injection, schedule: Q01DX009 (ip), vehicle: other
[15] = dose: 25.0 mg/kg/injection, schedule: Q01DX009 (ip), vehicle: other
[16] = dose: 50.0 mg/kg/injection, schedule: Q01DX009 (ip), vehicle: other
[17] = dose: 12.5 mg/kg/injection, schedule: Q04DX003 (ip), vehicle: distilled water + Tween-80
[18] = dose: 25.0 mg/kg/injection, schedule: Q04DX003 (ip), vehicle: distilled water + Tween-80
[19] = dose: 200.0 mg/kg/injection, schedule: Q01DX005 (ip), vehicle: saline with Tween-80

C=C(C)C12OC1[C@@]1(C)C(=CC2=O)CCC(O)[C@@H]1C (stereo not given in full)
T/C (dose: 20.0 mg/kg/injection, schedule: Q01DX005 (ip), vehicle: saline): 101 % of control | T/C (dose: 40.0 mg/kg/injection, schedule: Q01DX005 (ip), vehicle: saline): 104 % of control | T/C (dose: 80.0 mg/kg/injection, schedule: Q01DX005 (ip), vehicle: saline): 100 % of control

O=CNc1ccn[nH]1
T/C [1]: 106 % of control | T/C [2]: 101 % of control | T/C [3]: 100 % of control

CCCCN(CCCC)CCC(O)c1cc(C(F)(F)F)nc2c(C(F)(F)F)cccc12 (stereo not given)
T/C (dose: 50.0 mg/kg/injection, schedule: Q01DX009 (ip), vehicle: saline with Tween-80): 104 % of control | T/C [4]: 114 % of control | T/C [5]: 100 % of control

Cc1cc(NCCCCCCCCNc2cc(C)nc3cc(N)ccc23)c2ccc(N)cc2n1
T/C (dose: 0.78 mg/kg/injection, schedule: Q01DX009 (ip), vehicle: water): 119 % of control | T/C (dose: 1.56 mg/kg/injection, schedule: Q01DX009 (ip), vehicle: water): 123 % of control

CC(C)C(C(=O)CCN(C)C)c1ccc(Cl)cc1 (stereo not given)
T/C [6]: 116 % of control | T/C [7]: 100 % of control

CCN(CC)C(=Nc1ccc(Cl)c(Cl)c1)SC(NC=O)=C(Cl)Cl
T/C [8]: 100 % of control | T/C [9]: 104 % of control | T/C [10]: 104 % of control

CC(C)N=Cc1ccccc1O.CC(C)N=Cc1ccccc1O.[Zn]
T/C (dose: 25.0 mg/kg/injection, schedule: Q04DX003 (ip), vehicle: saline sonified): 100 % of control | T/C (dose: 50.0 mg/kg/injection, schedule: Q04DX003 (ip), vehicle: saline sonified): 100 % of control | T/C (dose: 100.0 mg/kg/injection, schedule: Q04DX003 (ip), vehicle: saline sonified): 104 % of control

COC(=O)N1c2ccccc2C=C(NC(C)=O)C1C#N (stereo not given)
T/C (dose: 100.0 mg/kg/injection, schedule: Q04DX003 (ip), vehicle: saline with Tween-80): 90 % of control | T/C [11]: 100 % of control | T/C (dose: 400.0 mg/kg/injection, schedule: Q04DX003 (ip), vehicle: saline with Tween-80): 100 % of control

C/C(=N\NC(=S)Nc1ccc(C(=O)O)cc1)c1ccc2ccccc2n1
T/C [6]: 105 % of control | T/C [7]: 114 % of control

CC1(C)O[C@@H]2C[C@H]3[C@@H]4CCC5=CC(=O)CC[C@]5(C)[C@@]4(F)[C@@H](O)C[C@]3(C)[C@]2(C(=O)CO)O1
T/C (dose: 12.5 mg/kg/injection, schedule: Q01DX009 (ip), vehicle: saline with Tween-80): 109 % of control | T/C (dose: 25.0 mg/kg/injection, schedule: Q01DX009 (ip), vehicle: saline with Tween-80): 86 % of control

O=C(OC(c1ccccc1)(C(F)(F)F)C(F)(F)F)c1ccccc1Sc1ccccc1
T/C [4]: 95 % of control | T/C [5]: 90 % of control | T/C (dose: 400.0 mg/kg/injection, schedule: Q01DX009 (ip), vehicle: saline with Tween-80): 95 % of control

CCn1c(=O)c2n[nH]nc2n(CCO)c1=O
T/C [12]: 97 % of control | T/C [13]: 100 % of control

COc1cc2ccc(CC(=S)N3CCOCC3)cc2cc1OC
T/C [4]: 90 % of control | T/C [5]: 90 % of control

CC1(C)OC2CCC3OC(=O)C(C)(Cl)C3C2O1 (stereo not given)
T/C [14]: 116 % of control | T/C [15]: 107 % of control | T/C [16]: 99 % of control | T/C (dose: 100.0 mg/kg/injection, schedule: Q01DX009 (ip), vehicle: other): 116 % of control

O=C(c1nc2ccccc2[nH]1)N1CCN(c2ccccc2)CC1
T/C (dose: 50.0 mg/kg/injection, schedule: Q01DX005 (ip), vehicle: Klucel (hydroxypropylcellulose) (HPC)): 104 % of control | T/C (dose: 100.0 mg/kg/injection, schedule: Q01DX005 (ip), vehicle: Klucel (hydroxypropylcellulose) (HPC)): 107 % of control and 95 % of control | T/C (dose: 200.0 mg/kg/injection, schedule: Q01DX005 (ip), vehicle: Klucel (hydroxypropylcellulose) (HPC)): 101 % of control and 110 % of control

COc1ccc2c(c1O)-c1cc(O)cc3c1C(C2)N(C(=O)CN(CCCl)CCCl)CC3 (stereo not given)
T/C [17]: 158 % of control | T/C (dose: 12.5 mg/kg/injection, schedule: Q04DX003 (ip), vehicle: water): 158 % of control | T/C [18]: 114 % of control | T/C (dose: 25.0 mg/kg/injection, schedule: Q04DX003 (ip), vehicle: water): 116 % of control | T/C (dose: 50.0 mg/kg/injection, schedule: Q04DX003 (ip), vehicle: water): 96 % of control

CC1(C)CC(=O)C=C(NCCCCNC2=CC(=O)CC(C)(C)C2)C1
T/C [12]: 95 % of control | T/C [13]: 95 % of control | T/C (dose: 200.0 mg/kg/injection, schedule: Q01DX009 (ip), vehicle: Klucel (hydroxypropylcellulose) (HPC)): 95 % of control

NCCCN=c1ccc2c3c1c(O)c1c(O)ccc(=O)c1c3[nH]n2CCNCCO
T/C (dose: 3.12 mg/kg/injection, schedule: Q04DX002 (ip), vehicle: saline): 165 % of control | T/C (dose: 3.12 mg/kg/injection, schedule: Q04DX002 (ip), vehicle: water): 165 % of control | T/C (dose: 6.25 mg/kg/injection, schedule: Q04DX002 (ip), vehicle: saline): 165 % of control | T/C (dose: 6.25 mg/kg/injection, schedule: Q04DX002 (ip), vehicle: water): 172 % of control | T/C (dose: 9.72 mg/kg/injection, schedule: Q04DX002 (ip), vehicle: water): 196 % of control | T/C (dose: 12.5 mg/kg/injection, schedule: Q04DX002 (ip), vehicle: saline): 190 % of control | T/C (dose: 12.5 mg/kg/injection, schedule: Q04DX002 (ip), vehicle: water): 177 % of control | T/C (dose: 16.2 mg/kg/injection, schedule: Q04DX002 (ip), vehicle: water): 199 % of control | T/C (dose: 17.0 mg/kg/injection, schedule: Q01DX001 (ip), vehicle: water): 268 % of control | T/C (dose: 25.0 mg/kg/injection, schedule: Q04DX002 (ip), vehicle: saline): 207 % of control | T/C (dose: 25.0 mg/kg/injection, schedule: Q04DX002 (ip), vehicle: water): 250 % of control | T/C (dose: 27.0 mg/kg/injection, schedule: Q04DX002 (ip), vehicle: water): 245 % of control | T/C (dose: 45.0 mg/kg/injection, schedule: Q04DX002 (ip), vehicle: water): 323 % of control | T/C (dose: 50.0 mg/kg/injection, schedule: Q04DX002 (ip), vehicle: saline): 254 % of control | T/C (dose: 50.0 mg/kg/injection, schedule: Q04DX002 (ip), vehicle: water): 272 % of control

CN(C)CCCN1c2ccccc2Sc2ccc3ccccc3c21
T/C [6]: 104 % of control | T/C [7]: 102 % of control | T/C [19]: 104 % of control

C=CCc1cc(C(CC)C(CC)c2ccc(OCCN(CC)CC)c(CC=C)c2)ccc1OCCN(CC)CC (stereo not given)
T/C [6]: 95 % of control | T/C [7]: 98 % of control | T/C [19]: 101 % of control

CC[CH2][Pb]([CH2]CC)([CH2]CC)[O]C(=O)C(F)(F)F
T/C (dose: 3.13 mg/kg/injection, schedule: Q01DX009 (ip), vehicle: saline): 117 % of control

CC1(C)Oc2cc3oc(C(=O)O)cc(=O)c3cc2-c2ccccc21
T/C [1]: 92 % of control | T/C [2]: 96 % of control | T/C [3]: 109 % of control

c1ccc(N2CN(c3ccccc3)C2)cc1
T/C [8]: 88 % of control | T/C [9]: 86 % of control | T/C [10]: 88 % of control

COc1cc(/C=N\N=C\c2cc(OC)c(OC)c(OC)c2)cc(OC)c1OC
T/C [11]: 100 % of control

CC1(O)Cc2c(O)c3c(c(O)c2CC1O)C(=O)C=CC3=O (stereo not given)
T/C (dose: 3.13 mg/kg/injection, schedule: Q04DX003 (ip), vehicle: distilled water + Tween-80): 100 % of control | T/C (dose: 6.25 mg/kg/injection, schedule: Q04DX003 (ip), vehicle: distilled water + Tween-80): 100 % of control | T/C [17]: 97 % of control | T/C [18]: 100 % of control and 96 % of control

O=[N+]([O-])c1cnc(/C=[N+](\[O-])C2CCCCC2)n1CCO
T/C [1]: 98 % of control | T/C [2]: 100 % of control | T/C [3]: 102 % of control

CC(C)(C)C(S)CS (stereo not given)
T/C (dose: 12.5 mg/kg/injection, schedule: Q01DX005 (ip), vehicle: saline with Tween-80): 104 % of control | T/C (dose: 25.0 mg/kg/injection, schedule: Q01DX005 (ip), vehicle: saline with Tween-80): 104 % of control | T/C [6]: 101 % of control and 103 % of control

NNS(=O)(=O)c1cccc([N+](=O)[O-])c1
T/C [14]: 107 % of control | T/C [15]: 98 % of control | T/C [16]: 103 % of control
